Assay results reported in US6500959B1, “Pyrrolidine derivatives and processes for preparing same” (GPI NIL Holdings, Inc., priority 1995, dated 2002).
“Also recorded” adds a separate entry of the source. Read-outs that look alike come from different tables or passages of the source.

What was measured:
sciatic nerve = experiment: Sciatic nerve axotomy (crush), axon number and myelination; type: in vivo, Sprague-Dawley rats
Excerpt: FIGS. 3A-3D are photomicrographs of rat […] sections. […] Sciatic nerves of 150 g male Sprague-Dawley rats were crushed at the level of the hips. […] Animals were sacrificed, sciatic nerves removed and nerve segments 2 mm distal to the crush site were sectioned and stained with Holmes silver stain (to assess axon number) and Luxol fast blue (to assess remyelination). The micrographs show sciatic nerve sections of sham operated rats, vehicle-treated lesioned animals. […] Six-week old male Sprague-Dawley rats were anesthetized, and the sciatic nerve exposed and crushed, at the level of the hip, by forceps. Test compounds or vehicle were administered subcutaneously just prior to the lesion and daily for the following 18 days. Sections of the sciatic nerve were stained with Holmes silver stain to quantify the number of axons, and Luxol fast blue to quantify the level of myelination. […] “Sham” denotes control animals that received vehicle but were not lesioned; “Vehicle” denotes animals that were lesioned and received only vehicle (i.e., no drug).

[1] = system: chick dorsal root ganglia; experiment: Chick dorsal root ganglion cultures and neurite outgrowth; type: cell-based; conditions: read-out: ED50, neurite outgrowth
Excerpt: (§1) Forty-eight hours later, the number of neurite with a length greater than one DRG explant was quantitated. The number of neurites expressed in untreated DRG's was subtracted from the neurite number of Example 17—treated samples to yield Example 17—dependent specific neurite outgrowth.
as §1, with “form” for “from”, “outgrowth. Quantitative dose-dependent neurite outgrowth elicited by Example 17 is presented.” for “outgrowth.”
Dorsal root ganglia were dissected from chick embryos of ten day gestation. Whole ganglion explants were cultured on thin layer Matrigel-coated 12 well plates with Liebovitz L15 plus high glucose media supplemented with 2 mM glutamine and 10% fetal calf serum, and also containing 10 μM cytosine β-D arabinofuranoside (Ara C) at 37° C. in an environment containing 5% CO2. Twenty-four hours later, the DRGs were treated with various concentrations of nerve growth factor, immunophilin ligands or combinations of NFG plus drugs. Forty-eight hours after drug treatment, the ganglia were visualized under phase contrast or Hoffman Modulation contrast with a Zeiss Axiovert inverted microscope. Photomicrographs of the explants were made, and neurite outgrowth was quantitated. Neurites longer than the DRG diameter were counted as positive, with total number of neurites quantitated per each experimental condition. Three to four DRGs are cultured per well, and each treatment was performed in duplicate.

FKBP = FKBP (Homo sapiens, UniProt P62942); experiment: Ki test procedure: inhibition of peptidyl-prolyl isomerase (rotamase) activity, chymotrypsin-coupled assay; type: biochemical; conditions: apparent Ki
Sequence of FKBP (P62942 whole entry): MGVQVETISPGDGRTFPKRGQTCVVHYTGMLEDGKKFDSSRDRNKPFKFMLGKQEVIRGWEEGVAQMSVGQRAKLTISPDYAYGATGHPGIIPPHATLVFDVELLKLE
Protocol: The inhibition of this reaction caused by the addition of different concentrations of inhibitor is determined, and the data is analyzed as a change in first-order rate constant as a function of inhibitor concentration to yield the apparent Ki values.
In a plastic cuvette are added […] of ice cold assay buffer (25 mM HEPES, pH 7.8, 100 mM NaCl), […] of FKBP (2.5 mM in 10 mM Tris-Cl pH 7.5, 100 mM NaCl, 1 mM dithiothreitol), […] of chymotrypsin (50 mg/ml in 1 mM HCl) and […] of test compound at various concentrations in dimethyl sulfoxide.

[2] = 30 mg/kg s.c., just prior to lesion and daily for 18 days
[3] = chick DRG explants, 48 h after drug treatment

Row | Compound | EC50 ([1]; Gallus gallus, 48 h) [nM] | Ki (FKBP) [nM] | also measured
1 | CCC(C)(C)C(=O)C(=O)N1CCC[C@H]1C(=O)OCCCc1ccccc1 [Example 1, 3-phenyl-1-propyl (2S)-1-(3,3-dimethyl-1,2-dioxopentyl)-2-pyrrolidinecarboxylate] | 53 | – | axon number, decrease as compared to non-lesioned control (sciatic nerve; [2]): 5%; degree of myelination, decrease as compared to control (sciatic nerve; [2]): 50%; neuronal regeneration, appearance of sciatic nerve sections (sciatic nerve; 30 mg/kg s.c., compared with sham and vehicle-treated lesioned animals): striking similarity to the sham treated animals; also recorded: promotes neuronal regeneration following sciatic nerve lesions; Axon Number (% Control) (sciatic nerve; lesioned rats, 30 mg/kg s.c. daily, Holmes silver stain): 100 % Control; Myelin Level (sciatic nerve; lesioned rats, 30 mg/kg s.c. daily, Luxol fast blue, Sham = 100): 50
2 | CCC(C)(C)C(=O)C(=O)N1CCC[C@H]1C(=O)OC/C=C/c1ccccc1 [Example 2, 3-phenyl-1-prop-2-(E)-enyl (2S)-1-(3,3-dimethyl-1,2-dioxopentyl)-2-pyrrolidinecarboxylate] | 105 | 125 | –
3 | CCC(C)(C)C(=O)C(=O)N1CCC[C@H]1C(=O)OCCCc1cc(OC)c(OC)c(OC)c1 [Example 3, 3-(3,4,5-trimethoxyphenyl)-1-propyl (2S)-1-(3,3-dimethyl-1,2-dioxopentyl)-2-pyrrolidine-carboxylate] | 149 | – | –
4 | CCC(C)(C)C(=O)C(=O)N1CCC[C@H]1C(=O)OC/C=C/c1cc(OC)c(OC)c(OC)c1 [Example 4, 3-(3,4,5-trimethoxyphenyl)-1-prop-2-(E)-enyl (2S)-1-(3,3-dimethyl-1,2-dioxopentyl)-2-pyrrolidine carboxylate] | 190 | 65 | –
5 | CCC(C)(C)C(=O)C(=O)N1CCC[C@H]1C(=O)OCCCc1ccc2c(c1)OCO2 [Example 5] | – | 170 | EC50 [1, 3]: 10 nM
6 | CCC(C)(C)C(=O)C(=O)N1CCC[C@H]1C(=O)OC/C=C/c1ccc2c(c1)OCO2 [Example 6, 3-(4,5-methylenedioxyphenyl)-1-prop-2-(E)-enyl (2S)-1-(3,3-dimethyl-1,2-dioxopentyl)-2-pyrrolidinecarboxylate] | 75 | 160 | –
7 | CCC(C)(C)C(=O)C(=O)N1CCC[C@H]1C(=O)OC/C=C/C1CCCCC1 [Example 8, 3-cyclohexyl-1-prop-2-(E)-enyl (2S)-1-(3,3-dimethyl-1,2-dioxopentyl)-2-pyrrolidinecarboxylate] | – | 600 | –
8 | O=C(C(=O)N1CCC[C@H]1C(=O)OCCCc1ccccc1)c1ccco1 [Example 10, 3-phenyl-1-propyl (2S)-1-(1,2-dioxo-2-[2-furanyl])ethyl-2-pyrrolidinecarboxylate] | 0.46 | 4000 | –
9 | O=C(C(=O)N1CCC[C@H]1C(=O)OCCCc1ccccc1)c1cccs1 [Example 11, 3-phenyl-1-propyl (2S)-1-(1,2-dioxo-2-[2-thienyl])ethyl-2-pyrrolidinecarboxylate] | 0.015 | 92 | –
10 | O=C(C(=O)N1CCC[C@H]1C(=O)OCCCc1ccccc1)c1nccs1 [Example 12, 3-phenyl-1-propyl (2S)-1-(1,2-dioxo-2-[2-thiazolyl])ethyl-2-pyrrolidinecarboxylate] | – | 100 | –
11 | O=C(C(=O)N1CCC[C@H]1C(=O)OCCCc1ccccc1)c1ccccc1 [Example 13, 3-phenyl-1-propyl (2S)-1-(1,2-dioxo-2-phenyl)ethyl-2-pyrrolidinecarboxylate] | – | 1970 | –
12 | CCC(C)(C)C(=O)C(=O)N1CCC[C@H]1C(=O)OCCCc1cc(OC)ccc1OC [Example 14, 3-(2,5-dimethoxyphenyl)-1-propyl (2S)-1-(3,3-dimethyl-1,2-dioxopentyl)-2-pyrrolidine-carboxylate] | 2 | – | –
13 | CCC(C)(C)C(=O)C(=O)N1CCC[C@H]1C(=O)OC/C=C/c1cc(OC)ccc1OC [Example 15, 3-(2,5-dimethoxyphenyl)-1-prop-2-(E)-enyl (2S)-1-(3,3-dimethyl-1,2-dioxopentyl)-2-pyrrolidine-carboxylate] | 0.8 | 450 | –
14 | CCC(C)(C)C(=O)C(=O)N1CCC[C@H]1C(=O)OCCc1cc(OC)c(OC)c(OC)c1 [Example 16, 2-(3,4,5-trimethoxyphenyl)-1-ethyl (2S)-1-(3,3-dimethyl-1,2-dioxopentyl)-2-pyrrolidine-carboxylate] | 0.015 | – | –
15 | CCC(C)(C)C(=O)C(=O)N1CCC[C@H]1C(=O)OCCCc1ccccn1 [Example 18, 3-(2-Pyridyl)-1-propyl (2S)-1-(3,3-dimethyl-1,2-dioxopentyl)-2-pyrrolidinecarboxylate] | 30 | – | –
16 | CCC(C)(C)C(=O)C(=O)N1CCC[C@H]1C(=O)OCCCc1ccncc1 [Example 19, 3-(4-Pyridyl)-1-propyl (2S)-1-(3,3-dimethyl-1,2-dioxopentyl)-2-pyrrolidinecarboxylate] | 6 | – | –
17 | O=C(C(=O)N1CCC[C@H]1C(=O)OC(CCc1ccccc1)c1ccccc1)C1CCCCC1 (stereo partly drawn) [Example 20, 3-phenyl-1-phenyl-1-propyl (2S)-1-(2-cyclohexyl-1,2-dioxoethyl)-2-pyrrolidinecarboxylate] | – | 82 | EC50 [1, 3]: 0.13 nM
18 | CC(C)(C)C(=O)C(=O)N1CCC[C@H]1C(=O)OCCCc1ccccc1 [Example 21, 3-phenyl-1-propyl (2S)-1-(2-tert-butyl-1,2-dioxoethyl)-2-pyrrolidinecarboxylate] | 0.025 | – | –
19 | O=C(CCC1CCCCC1)C(=O)N1CCC[C@H]1C(=O)OCCCc1ccccc1 [Example 22, 3-phenyl-1-propyl (2S)-1-(2-cyclohexyl-ethyl-1,2-dioxoethyl)-2-pyrrolidinecarboxylate] | 0.66 | – | –
20 | O=C(CCC1CCCCC1)C(=O)N1CCC[C@H]1C(=O)OCCCc1cccnc1 [Example 23, 3-(3-pyridyl)-1-propyl (2S)-1-(2-cyclohexylethyl-1,2-dioxoethyl)-2-pyrrolidinecarboxylate] | 1100 | – | –
21 | CC(C)(C)C(=O)C(=O)N1CCC[C@H]1C(=O)OCCCc1cccnc1 [Example 24, 3-(3-pyridyl)-1-propyl (2S)-1-(2-tert-butyl-1,2-dioxoethyl)-2-pyrrolidinecarboxylate] | 0.014 | – | –
22 | CCC(C)(C)C(=O)C(=O)N1CCC[C@H]1C(=O)OCCC(c1ccccc1)c1ccccc1 [Example 25, 3,3-diphenyl-1-propyl (2S)-1-(3,3-dimethyl-1,2-dioxopentyl)-2-pyrrolidinecarboxylate] | 0.5 | – | –
23 | O=C(C(=O)N1CCC[C@H]1C(=O)OCCCc1cccnc1)C1CCCCC1 [Example 26, 3-(3-pyridyl)-1-propyl (2S)-1-(2-cyclohexyl-1,2-dioxoethyl)-2-pyrrolidinecarboxylate] | 2 | – | –
24 | O=C(C(=O)N1CCC[C@H]1C(=O)OCCCc1cccnc1)c1cccs1 [Example 27, 3-(3-Pyridyl)-1-propyl (2S)-N-([2-thienyl]glyoxyl)pyrrolidinecarboxylate] | 500 | 1000 | –
25 | CC(C)(C)C(=O)C(=O)N1CCC[C@H]1C(=O)OCCC(c1ccccc1)c1ccccc1 [Example 28, 3,3-Diphenyl-1-propyl (2S)-1-(3,3-dimethyl-1,2-dioxobutyl)-2-pyrrolidinecarboxylate] | 0.5 | – | –
26 | O=C(C(=O)N1CCC[C@H]1C(=O)OCCC(c1ccccc1)c1ccccc1)C1CCCCC1 [Example 29, 3,3-Diphenyl-1-propyl (2S)-1-cyclohexyl glyoxyl-2-pyrrolidinecarboxylate] | 10 | 20 | –
27 | O=C(C(=O)N1CCC[C@H]1C(=O)OCCC(c1ccccc1)c1ccccc1)c1cccs1 [Example 30, 3,3-Diphenyl-1-propyl (2S)-1-(2-thienyl) glyoxyl-2-pyrrolidinecarboxylate] | 100 | 150 | –
